Drawing on PubChem BioAssay (NCI), this text covers TGI for 15 compounds.

What all share (experiment): DTP human tumour cell line panel, 48 h
Test [1] deals with HCT-15 colon.
Test [2] relates to DU-145 prostate.
The test system of test [3] is MDA-MB-231 breast.
The test system of test [4] is BT-549 breast.
The subject of test [5] is 786-0 renal.
Test [6] has as its system NCI-H460 lung.
The subject of test [7] is SF-539 CNS.
Test [8] relates to COLO 205 colon.
In test [9] the test system is MOLT-4 leukemia.
In test [10] the test system is T-47D breast.
In test [11] the test system is SK-OV-3 ovarian.
Test [12] concerns K-562 leukemia.
In test [13] the test system is KM12 colon.
For test [14], the system named is OVCAR-8 ovarian.
Test [15] relates to SNB-75 CNS.
Test [16] has as its system HT29 colon.
Test [17] has as its system NCI/ADR-RES ovarian.
The test system of test [18] is UO-31 renal.
Test [19] deals with A549 NSCLC.

Structures are written as SMILES.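 Where inhibition never reached the appropriate level, the endpoint shown equals the highest concentration tested. Otherwise, values were interpolated linearly from a five-concentration, 48-hour dose response in 96-well plates. At the TGI there is no net growth.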 Some results are limits rather than exact numbers.

Take `CCOC(=O)c1ccc(N(C)Cc2cnc3nc(N)nc(N)c3n2)cc1`: the concentration for total growth inhibition (TGI) (in general, the concentration at which net growth stops) in test [1] is > 100 µM; in [2], > 100 µM; in test [3], 81.7 µM; in [4], > 100 µM; in test [5], > 100 µM; in test [6], > 100 µM. In addition, the TGI in test [7] is 33.9 µM; in [8], > 100 µM; in test [9], > 100 µM; in test [10], 79.7 µM; in test [11] it was 51.4 µM; in [12], > 100 µM. Further, the TGI in test [13] is > 100 µM; in test [14], 29.2 µM; in test [15], 54 µM; in test [16], > 100 µM; in [17], 38.8 µM; in test [18] it was 72.1 µM.

For `CC1(C)CCCCC1/C=C/C(CC(O)(C(F)(F)F)C(F)(F)F)=N\Nc1ccc([N+](=O)[O-])cc1[N+](=O)[O-]` (stereo unspecified), the TGI was > 100 µM in test [1]; 13.4 µM in [2]; 9.62 µM in [3]; 1.99 µM in test [4]; 4.7 µM in [5]; 6.73 µM in test [6]. Moreover, the concentration for total growth inhibition (TGI) came out at 0.973 µM in test [7]; 10.8 µM in [8]; 5.78 µM in test [9]; 2.99 µM in [10]; 3.59 µM in test [19]; 14.8 µM in [11]. The TGI in [12] is 11.1 µM; in [13] it was 9.75 µM; in test [14], 14.7 µM; in [15], 11.7 µM; in test [16] it was 11.3 µM; in [17], > 100 µM. In [18], the TGI stood at 4.15 µM.

Regarding `CC(C)(Cl)C(Br)CCC(=CCBr)CBr` (mixture of isomers), the TGI in test [1] amounted to 3.75 µM; in test [2], 21.3 µM; in test [3] it was 3.51 µM; in test [4], 7.5 µM; in test [5], 3.17 µM; in test [6], 13.6 µM. The TGI was 4.93 µM in [7]; 4.91 µM in test [8]; 2.88 µM in test [9]; 17.3 µM in test [10]; 29.9 µM in test [19]; 29 µM in test [11]. In addition, the TGI is 4.18 µM in test [12]; 5.93 µM in test [13]; 9.25 µM in test [14]; 7.31 µM in test [15]; 4.65 µM in test [16]; > 24.5 µM in test [17]. The same compound had a concentration for total growth inhibition (TGI) in [18] of 3.42 µM.

For `CNC(=S)N/N=C(\C)c1cc(OC)c(OC)cc1O`, the TGI in test [1], in [2], in test [3], in test [4], in test [5] and in test [6] was > 100 µM each time. Moreover, the TGI in test [7], in test [8], in test [9], in test [10], in [19] and in [11] was > 100 µM in each case. The TGI in test [12], in [13], in test [14], in test [15], in test [16] and in [17] was > 100 µM in each case. Further, the TGI in [18] was > 100 µM.

In the case of `CCCCN(CCCC)C1(c2cc3ccccc3s2)CCCCC1`, the TGI in test [1] is 30.8 µM; in [2], 30 µM; in test [3], 30.2 µM; in test [4] it was 35.1 µM; in test [5] it was 27.3 µM; in [6], 27.9 µM. Besides, the TGI was 34.9 µM in [7]; 31.3 µM in [8]; 28.8 µM in test [9]; 34.7 µM in test [10]; 34 µM in test [19]; 36.3 µM in [11]. The TGI in test [12] is 32.9 µM; in test [13] it was 30.4 µM; in test [14], 34.4 µM; in test [15] it was 30.5 µM; in test [16], 27.5 µM; in [17], 34 µM. Besides, the TGI in test [18] came to 32.9 µM.

Turning to `COc1cc2c(OC)c3cc(C)oc(=O)c3c(O)c2c(O)c1-c1c(OC)cc2c(OC)c3cc(C)oc(=O)c3c(O)c2c1O`, the TGI was 39.4 µM in [1]; > 100 µM in [2]; 36.6 µM in test [3]; 68.5 µM in [4]; 60.8 µM in [5]; 42.5 µM in test [6]. The TGI in test [7] was 35.7 µM; in test [9] it was 31.8 µM; in test [10], > 100 µM; in test [19], 38.9 µM; in [11] it was > 100 µM; in test [12], 34.3 µM. The TGI was 40.4 µM in [13]; 30 µM in test [14]; > 100 µM in test [15]; 55.3 µM in [16]; 35.7 µM in test [17]; 35.9 µM in test [18].

Consider `COc1ccc(-c2nc(SCC(=O)N/N=C/c3ccc([N+](=O)[O-])cc3)[nH]c2-c2ccc(OC)cc2)cc1`, for which the TGI in test [1] was > 85.1 µM; in test [2] it was > 100 µM; in [3], > 100 µM; in test [4], 51.3 µM; in test [5], > 93.1 µM; in test [6], 45.8 µM. In addition, the TGI in [7] is 30.8 µM; in test [8], 5.28 µM; in [9], 42.1 µM; in [10], > 100 µM; in test [19] it was > 100 µM; in test [11], > 81.9 µM. Also, the TGI is > 100 µM in [12]; 35.9 µM in [13]; > 100 µM in test [14]; > 63.3 µM in test [15]; 26.9 µM in [16]; 79.7 µM in test [17]. The TGI in test [18] was > 100 µM.

For the compound `Cc1ccc(S(=O)(=O)NN=C2C(C)CC(C(C)(C)C)CC2C)cc1` (stereo unspecified), the TGI in [1] is 34.4 µM; in test [2] it was 39.1 µM; in test [3] it was 85.9 µM; in [4], 35.5 µM; in [5], 32.9 µM; in [6] it was 34.3 µM. Also, the TGI was > 100 µM in test [7]; 34.5 µM in test [8]; 43 µM in test [9]; 50.7 µM in [10]; 32.7 µM in test [19]; 51.7 µM in test [11]. Also, the TGI in [12] was 44.1 µM; in [13] it was 31.4 µM; in test [14], 59.8 µM; in test [15], 37.8 µM; in [16] it was 32.8 µM; in [17] it was 82.1 µM. This compound gave a TGI in test [18] of 40.8 µM.

For `O=c1cc(CN2CCCCC2)[nH]c2c1ccc1nc(CN3CCCCC3)cc(=O)n12`, the TGI in test [1], in test [2], in [3], in [4], in [5] and in test [6] was > 100 µM throughout. In addition, the TGI in test [7], in test [8], in test [9], in test [10], in [19] and in test [11] was > 100 µM throughout. In addition, the TGI in test [12], in test [13], in [14], in test [15], in test [16] and in test [17] was > 100 µM each time. Besides, the TGI in test [18] is > 100 µM.

On to `CCOC(=O)C(=NN(C)c1ncccc1N)C(=O)OCC`, for which the TGI in test [1] was > 100 µM; in [2], > 100 µM; in test [3] it was 83.3 µM; in test [4], > 100 µM; in test [5] it was 87.2 µM; in test [6], > 100 µM. In addition, the TGI in test [7] was 69.8 µM; in [8], 29 µM; in [9], 53.7 µM; in test [10], 62.7 µM; in test [19] it was > 100 µM; in test [11], > 100 µM. In addition, the TGI is 59.1 µM in test [12]; > 100 µM in [13]; > 100 µM in test [14]; > 100 µM in test [15]; > 100 µM in [16]; > 100 µM in test [17]. For the same compound, the TGI in test [18] was > 100 µM.

Consider `Brc1ccc(N=C/C=C(\Nc2ccc(Br)cc2)C23CC4CC(CC(C4)C2)C3)cc1`, for which the TGI was > 46.6 µM in test [1]; 35.4 µM in [2]; 31.9 µM in test [3]; 49.7 µM in [4]; 28.9 µM in [5]; > 68.8 µM in test [6]. For the same compound, the TGI in test [7] is 51.8 µM; in [8] it was 47.3 µM; in test [9] it was > 72.8 µM; in test [10], 43.9 µM; in test [19], > 100 µM; in [11], > 100 µM. Besides, the TGI in test [12] is > 67 µM; in [13] it was 33.9 µM; in [14] it was > 81.3 µM; in test [15], 35.5 µM; in test [16], > 61.6 µM; in [17], > 84.9 µM. In [18], this compound registered a TGI of 34.6 µM.

Take `CC(=O)OCC(OC(C)=O)C(OC(C)=O)C(/C=N\Nc1nc2ccccc2c(=O)[nH]1)OC(C)=O` (stereo unspecified): the TGI in test [1], in test [2], in test [3], in test [4], in test [5] and in test [6] was > 100 µM in each case. For the same compound, the TGI in test [7], in test [8], in test [9], in [10], in [19] and in test [11] was > 100 µM each time. Moreover, the total growth inhibition concentration (TGI) in test [12], in test [13], in test [14], in test [15], in test [16] and in test [17] was > 100 µM each time. Further, the TGI in [18] was > 100 µM.

Turning to `N[C@@H]1c2c(Br)sc(Br)c2C(=O)[C@H]1Br`, the TGI in test [1] is 60.8 µM; in [2], > 100 µM; in [3], 48.5 µM; in test [4] it was 43.1 µM; in [5] it was 63.5 µM; in test [6], > 100 µM. The TGI in test [7] was > 100 µM; in test [8], > 68 µM; in test [9] it was > 46.1 µM; in test [10], 84 µM; in test [19] it was > 100 µM; in test [11], > 100 µM. Besides, the TGI in [12] is > 67 µM; in [13], > 61.5 µM; in test [14], 48.4 µM; in test [15] it was > 100 µM; in test [16], 53.3 µM; in test [17] it was 53.8 µM. Besides, the TGI in test [18] is 55.6 µM.

In the case of `Cc1nn(C(=O)c2ccc(Cl)cc2)c2c1C(c1ccccc1)SC(N)=N2` (stereo unspecified), the TGI in test [1], in test [2], in [3], in test [4], in [5] and in test [6] was > 10 µM throughout. The TGI in test [7], in test [8], in test [9], in test [10], in test [19] and in test [11] was > 10 µM each time. Also, the TGI in test [12], in test [13], in test [14], in test [15], in test [16] and in test [17] was > 10 µM each time.

In the case of `[N-]=[N+]=NCC(=O)c1c[nH]c(=O)[nH]c1=O`, the TGI in test [1], in test [2], in test [3], in test [4], in test [5] and in [6] was > 100 µM each time. Besides, the TGI in [7], in test [8], in test [10], in test [19], in [11] and in test [12] was > 100 µM throughout. In addition, the TGI in test [13], in [14], in [15], in test [16], in test [17] and in test [18] was > 100 µM each time.
